Measured values: article PMC9544187 (Environmental Toxicology and Chemistry, 2022)
Where two headings read alike, the source gives them in different places.

Legend:
[1] = Urinary concentrations of NNI compounds in wild raccoons; type: in vivo, raccoon, Procyon lotor; conditions: for GM ± SD urinary concentration / Percentile 25th urinary concentration / Percentile 50th urinary concentration / Percentile 75th urinary concentration / Percentile 95th urinary concentration / Percentile 100th urinary concentration: raccoon urine, n = 59
[2] = Japanese people, n = 45; ref Ikenaka et al. ([2019]); cited from earlier work
[3] = obtained from previous studies on humans; ref Ikenaka et al., [2019]; cited from earlier work
[4] = mice, 78‐week carcinogenicity study; ref Hirano et al., [2018]; cited from earlier work
[5] = Raccoons: present study (n = 59)

Row | SMILES | Mean urinary neonicotinoid concentration [1, 5] [µg/g creatinine] | GM ± SD urinary concentration ([1]; creatinine‐adjusted) [μg/g creatinine] | Percentile 25th urinary concentration ([1]; creatinine‐adjusted) | Percentile 50th urinary concentration ([1]; creatinine‐adjusted) | Percentile 75th urinary concentration ([1]; creatinine‐adjusted) | Percentile 95th urinary concentration ([1]; creatinine‐adjusted) | Percentile 100th urinary concentration ([1]; creatinine‐adjusted) | GM ± SD urinary concentration ([1]; volume‐adjusted) [µg/L] | Percentile 25th urinary concentration ([1]; volume‐adjusted) | Percentile 50th urinary concentration ([1]; volume‐adjusted) | Percentile 75th urinary concentration ([1]; volume‐adjusted) | Percentile 95th urinary concentration ([1]; volume‐adjusted) | Percentile 100th urinary concentration ([1]; volume‐adjusted) | Maximum urinary neonicotinoid concentration [2] [µg/g creatinine] | Mean urinary neonicotinoid concentration [2] [µg/g creatinine] | urinary excretion correction coefficient r [3] | no‐observable‐adverse‐effect level (NOAEL) [4] [mg/kg] | Maximum urinary neonicotinoid concentration [1, 5] [µg/g creatinine]
1 | C/C(=N\C#N)N(C)Cc1ccc(Cl)nc1 [Acetamiprid, acetamiprid] | 0.28 | 0.10 ± 0.74 | <PQL | <PQL | 0.25 µg/g creatinine | 0.79 µg/g creatinine | 5.61 µg/g creatinine | 0.07 ± 0.20 | <PQL | <PQL | 0.23 µg/L | 0.33 µg/L | 1.29 µg/L | 1.03 | 0.043 | 0.586 |  | 
2 | CN/C(=N\[N+](=O)[O-])NCc1cnc(Cl)s1 [Clothianidin, clothianidin] | 0.81 | 0.26 ± 1.65 | <PQL | 0.21 µg/g creatinine | 0.43 µg/g creatinine | 4 µg/g creatinine | 9.4 µg/g creatinine | 0.17 ± 0.89 | <PQL | 0.14 µg/L | 0.45 µg/L | 2.62 µg/L | 4.33 µg/L | 15.06 | 1.06 | 0.596 | ~50 | 
3 | CN/C(=N/CC1CCOC1)N[N+](=O)[O-] (stereo not drawn) [Dinotefuran, dinotefuran] | 0.74 | 0.37 ± 1.64 | <PQL | <PQL | <PQL | 1.38 µg/g creatinine | 10.28 µg/g creatinine | 0.25 ± 0.76 | <PQL | <PQL | <PQL | 1.11 µg/L | 5.67 µg/L | 9.49 | 0.57 | 0.899 |  | 
4 | O=[N+]([O-])NC1=NCCN1Cc1ccc(Cl)nc1 [Imidacloprid, imidacloprid] | 0.23 | 0.08 ± 0.75 | <PQL | <PQL | <PQL | 0.43 µg/g creatinine | 5.76 µg/g creatinine | 0.06 ± 0.20 | <PQL | <PQL | <PQL | 0.36 µg/L | 1.45 µg/L | 1.59 | 0.13 | 0.133 |  | 
5 | CCN(Cc1ccc(Cl)nc1)/C(=C/[N+](=O)[O-])NC [Nitenpyram, nitenpyram] | 0 |  | <PQL | <PQL | <PQL | <PQL | <PQL |  | <PQL | <PQL | <PQL | <PQL | <PQL | 1.25 | 0.1 |  |  | 0
6 | C/C(=N\C#N)NCc1ccc(Cl)nc1 [N‐dm‐acetamiprid, N‐desmethyl‐acetamiprid] | 2.48 | 0.16 ± 10.78 | <PQL | <PQL | 0.35 µg/g creatinine | 8.28 µg/g creatinine | 76.56 µg/g creatinine | 0.11 ± 9.33 | <PQL | <PQL | 0.22 µg/L | 3.28 µg/L | 71.28 µg/L | 26.92 | 2.2 |  |  | 
7 | N#C/N=C1\SCCN1Cc1ccc(Cl)nc1 [Thiacloprid, thiacloprid] | 0.09 | 0.03 ± 0.44 | <PQL | <PQL | <PQL | <PQL | 3.41 µg/g creatinine | 0.02 ± 0.04 | <PQL | <PQL | <PQL | <PQL | 0.32 µg/L | 0.2 | 0.03 | 0.05 |  | 
8 | CN1COCN(Cc2cnc(Cl)s2)/C1=N\[N+](=O)[O-] [Thiamethoxam, thiamethoxam] | 0.29 | 0.10 ± 0.95 | <PQL | <PQL | <PQL | 0.5 µg/g creatinine | 6.96 µg/g creatinine | 0.07 ± 0.95 | <PQL | <PQL | <PQL | 0.42 µg/L | 7.30 µg/L | 2.11 | 0.17 | 0.6 |  | 
